Four compounds from paper PMC7504735, “Enhanced Antigiardial Effect of Omeprazole Analog Benzimidazole Compounds” (Molecules, 2020) can be followed below.

The target in series [1] is T1, triosephosphate isomerase (TPI) (Giardia intestinalis, UniProt P36186).
T1 construct: His-tag (TEV-cleavable) (cleaved yes); made in house
In words: Inactivation of recombinant TPI enzyme with compounds. The series is classed as biochemical. As to conditions: for Loss (reduction) of TPI enzyme activity: 500 µM compound, 2 h at 37 °C. On the procedure:
The TPI from G. lamblia was expressed and purified. […] When the culture reached A600 = 0.8, it was induced using 0.4 mM IPTG and incubated overnight at 30 °C with shaking at 180 rpm. After the bacteria were collected by centrifugation (10,000× g, 15 min) and suspended in 40 mL of lysis buffer, pH 8.0 (50 mM Tris, 50 mM NaCl, 5 mM β-mercaptoethanol, and 1 mM phenylmethylsulfonyl fluoride). The bacterial suspension was disrupted by sonication and centrifuged at 9000× g for 1 h at 4 °C. Protein purification was performed by immobilized metal affinity chromatography (IMAC) using a Profinity Ni^2+ charged resin (Bio-Rad) previously reported by Enriquez-Flores et al.. The His-tag sequence was removed from the TIM by incubation with TEVP at a molar ratio of 30:1 (TPI/TEVP) at room temperature for 17 h in digestion buffer, pH 8.0 (50 mM Tris, 0.5 mM ethylene diamine tetraacetic acid (EDTA), and 1 mM dithiothreitol). The enzyme concentration was spectrophotometrically determined at 280 nm, and the enzyme was used immediately.
Enzyme activity of TPI was determined spectrophotometrically as described by monitoring the conversion of glyceraldehyde-3-phosphate (GAP) to dihydroxyacetone phosphate (DHAP). […] The standard reaction mixture contained 1 mM GAP, 0.2 mM NADH, and 0.9 units/mL of α-GDH in TE buffer (100 mM triethanolamine, 10 mM EDTA, pH 7.4). The reaction was initiated by adding 5 ng/mL of TPI to the reaction mixture.
(§1) To determine the inactivation of the TPI enzyme from G. lamblia, we performed inactivation assays of the enzyme in the presence of the synthesized compounds. The compounds’ stock solutions were freshly prepared using 100% dimethyl sulfoxide (DMSO) as the solvent at 25 mM. […] After the incubation period, the enzymatic activity was measured by withdrawing an aliquot of each experimental condition, as described above. The results were expressed in terms of the percentage of activity versus the compound’s concentration.

Series [2] has as its target T1, triosephosphate isomerase (TPI). In words: Second-order inactivation constant (k2) of TPI. It counts as biochemical, Giardia lamblia. As to conditions: read-out: Second-order inactivation constant k2. On the procedure: Enzyme activity of TPI was determined spectrophotometrically as described by monitoring the conversion of glyceraldehyde-3-phosphate (GAP) to dihydroxyacetone phosphate (DHAP). Briefly, the conversion of GAP to DHAP using a coupling system with enzyme α-glycerol-3-phosphate dehydrogenase (α-GDH) was determinate by measuring NADH oxidation at 340 nm, at 25 °C. The standard reaction mixture contained 1 mM GAP, 0.2 mM NADH, and 0.9 units/mL of α-GDH in TE buffer (100 mM triethanolamine, 10 mM EDTA, pH 7.4). The reaction was initiated by adding 5 ng/mL of TPI to the reaction mixture.
as §1, with “mM. The inactivation assays were performed by incubating 0.2 mg/mL of the TPI enzyme for 2 h at 37 °C in TE buffer with increasing concentrations of the compounds (0 to 500 μM).” for “mM.”
The second-order rate constants of inactivation were calculated by obtaining the pseudo-first-order rate constant (k1) values at each fixed concentration by fitting them to an exponential decay curve. Then, the k1 values were replotted against the concentrations of each compound; the second-order rate constant value of inactivation was obtained from the slope of these plots.

In the next series the test system is HT29 cells. In words: In vitro cytotoxicity, XTT assay, HT29. The series is classed as cell-based, human. The following applies: for Selectivity index (SI), CC50 HT29 / IC50 trophozoites: ratio of CC50/IC50 between mammal cells and trophozoites. On the procedure: (§2) The cytotoxicity of compounds was investigated on human cell lines Caco-2 (ATCC HTB-37) and HT-29 (ATCC HHTB-38), using a Cell Proliferation Kit II (XTT; St Louis, MO, USA) according to the manufacturer’s instructions. A cell suspension of 10^5 cells/mL was prepared in Dulbecco’s modified Eagle’s (DMEM); medium supplemented with 10% inactivated fetal bovine serum and 1% Penicillin/streptomycin (5000 U/mL), from confluent cultures, and […] portions of the suspension were added to the wells of 96-well plates. […] Solutions of the compound were prepared and sterilized as described in Section 3.4.1 of Materials and Methods. Then, 150 μL of two-fold serial dilutions of each of the compounds, starting at a concentration of 500 µM, in a culture medium at a concentration of 0.3% DMSO, were prepared in the plates. […] Each compound was assayed in triplicate via three independent experiments.
In general terms: Formazan colour is commonly taken as a measure of viable cells.

A short description of series [3]: In vitro cytotoxicity, XTT assay, HT29. It counts as cell-based, human. The following applies: human, HT-29 cells; for CC50 at 48 h: XTT; for viability at 48 h, 500 µM: read-out: Viability of HT-29 cells (lowered to). On the procedure: as §2
For another series, the system named is Caco-2 cells. In words: in vitro. The series is classed as cell-based. The procedure:
as §2

The next series is described as follows: in vitro. The series is classed as cell-based. As to conditions: human, Caco-2; for CC50 at 48 h: XTT; for selectivity ratio at 48 h: ratio of CC50/IC50 between mammal cells and trophozoites, read-out: Selectivity index (SI), CC50 Caco-2 / IC50 trophozoites; for viability at 48 h, 500 µM: read-out: Viability of Caco-2 cells (lowered to). The procedure: as §2

Where [4] appears, read: 500 µM (highest concentration tested).

T1 sequence (P36186 whole entry): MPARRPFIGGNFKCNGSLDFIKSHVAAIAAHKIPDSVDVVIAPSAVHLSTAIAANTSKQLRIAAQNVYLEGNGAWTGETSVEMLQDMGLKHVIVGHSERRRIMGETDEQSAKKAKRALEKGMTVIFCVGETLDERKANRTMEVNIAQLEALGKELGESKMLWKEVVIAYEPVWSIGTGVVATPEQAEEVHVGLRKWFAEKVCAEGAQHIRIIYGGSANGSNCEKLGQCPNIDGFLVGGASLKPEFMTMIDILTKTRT

In the case of `COc1c(C)cnc(C[S+]([O-])c2nc3ccccc3[nH]2)c1C` (stereo not drawn) [H-BZM2, 2-[(4-methoxy-3,5-dimethylpyridin-2-yl)methanesulfinyl]-1H-benzimidazole], in series [1], the IC50 came to 37 µM and the “Loss (reduction) of TPI enzyme activity” value is 100%. Moreover, in series [2], the kinact/KI is 2.3 M⁻¹ s⁻¹. Besides, the “Cell viability decrease, HT29” value in the series with HT29 cells (setting [4]) is on record as “approximately 20%”. The “Selectivity index (SI), CC50 HT29 / IC50 trophozoites” value in the series with HT29 cells is on record as 53. This compound gave a CC50 at 48 h in series [3] of 1910 µM. Also, the “Cell viability decrease, Caco-2” value in the series with Caco-2 cells (setting [4]) is reported as “approximately 20%”. Moreover, in the series “in vitro”, it took 3180 µM to reach half-maximal cytotoxicity (CC50 at 48 h) and the selectivity ratio at 48 h turned out to be 88.

As for `Cc1c(OCC(F)(F)F)ccnc1C[S+]([O-])c1nc2ccccc2[nH]1` (stereo not drawn) [Lansoprazole, 2-{[3-methyl-4-(2,2,2-trifluoroethoxy)pyridin-2-yl]methanesulfinyl}-1H-benzimidazole, reference compound], in series [1], the IC50 worked out at 66 µM and the “Loss (reduction) of TPI enzyme activity” value turned out to be 100%. Moreover, the kinact/KI in series [2] was 1.78 M⁻¹ s⁻¹. Moreover, the “Cell viability decrease, HT29” value in the series on HT29 cells (setting [4]) is “approximately 20%”. Besides, the midpoint of cytotoxicity in the series on HT29 cells (XTT, 48 h), the CC50, lay at 548 µM. For the same compound, in the series on HT29 cells, the “Selectivity index (SI), CC50 HT29 / IC50 trophozoites” value is given as 12. Besides, the “Cell viability decrease, Caco-2” value in the series with Caco-2 cells (setting [4]) was “approximately 20%”. In the series with Caco-2 cells (XTT, 48 h), this compound came in with a CC50 of 2640 µM. Also, in the series “in vitro”, the selectivity ratio at 48 h was found to be 59.

In the case of `O=[N+]([O-])c1ccc2nc([S+]([O-])Cc3ccccn3)[nH]c2c1` (stereo not drawn) [O2N-BZM7, 5-nitro-2-[(pyridin-2-yl)methanesulfinyl]-1H-benzimidazole], in series [1], the “Enhancement of TPI inactivation (IC50) with respect to BHO2” value is listed as 5.3 fold, the IC50 is 12 µM and the “Loss (reduction) of TPI enzyme activity” value stood at 100%. Moreover, the kinact/KI in series [2] was 3.2 M⁻¹ s⁻¹. The “Cell viability decrease, HT29” value in the series with HT29 cells (150 µM) is listed as “around 20%”. In addition, the “Selectivity index (SI), CC50 HT29 / IC50 trophozoites” value with HT29 cells turned out to be 37. In series [3], the viability at 48 h, 500 µM is approximately 50% and the CC50 at 48 h stood at 519 µM. Further, the “Cell viability decrease, Caco-2” value with Caco-2 cells (150 µM) was “around 20%”. In the series “in vitro”, the viability at 48 h, 500 µM is approximately 50%; the CC50 at 48 h turned out to be 640 µM; the selectivity ratio at 48 h came out at 45.

For the compound `Cc1c(OCC(F)(F)F)ccnc1C[S+]([O-])c1nc2ccc([N+](=O)[O-])cc2[nH]1` (stereo not drawn) [O2N-BZM9, 2-{[3-methyl-4-(2,2,2-trifluoroethoxy)pyridin-2-yl]methanesulfinyl}-5-nitro-1H-benzimidazole], in series [1], the “Enhancement of TPI inactivation (IC50) with respect to BHO2” value is recorded as 3.2 fold, the IC50 stood at 20 µM and the “Loss (reduction) of TPI enzyme activity” value amounted to 100%. Moreover, the kinact/KI in series [2] is 2.8 M⁻¹ s⁻¹. In addition, the “Cell viability decrease, HT29” value in the series on HT29 cells (150 µM) was “around 20%”. The “Selectivity index (SI), CC50 HT29 / IC50 trophozoites” value in the series on HT29 cells is listed as 36. In addition, in series [3], the viability at 48 h, 500 µM is approximately 50% and the CC50 at 48 h is 622 µM. Also, the “Cell viability decrease, Caco-2” value in the series with Caco-2 cells (150 µM) is “around 20%”. Besides, in the series “in vitro”, the viability at 48 h, 500 µM was approximately 50%; the midpoint of cytotoxicity, the CC50 at 48 h, lay at 663 µM; the selectivity ratio at 48 h is 39.

One may read the IC50 as the concentration that inhibits the measured activity by half. A word on the CC50: it is the concentration at which the toxic effect on the cells reaches its halfway point. Higher therefore signals better tolerance by the cells. A word on the viability: it is the share of living cells, or the viability signal relative to a control.
